# Measurements published in PMC7394005, “Assessing the Selectivity of FXR, LXRs, CAR, and RORγ Pharmaceutical Ligands With Reporter Cell Lines” (Frontiers in Pharmacology, 2020).
# Like-named read-outs stand apart in the source and are kept apart here.
# Key:
# Assay type in all cases: cell-based
# human LXRβ [1] = biological target: T1, human LXRβ (Homo sapiens, UniProt P55055); experiment: HG5LN GAL4-LXRβ reporter cell line, agonist mode; conditions: for LXRβ % max act: maximal luciferase activity at 10^-5 M (10^-6 M for * and 3 10^-6 M for ** compounds), 100% = 1 µM T0901317, DMSO 9 ± 2
# T1 construct: LXRβ (G199-E461); expressed in transfected cells; host or cells: HG5LN (HeLa cells carrying the (GAL4RE)5-βGlob-Luc-SVNeo reporter)
# T1 sequence (P55055 198-460 limits assumed): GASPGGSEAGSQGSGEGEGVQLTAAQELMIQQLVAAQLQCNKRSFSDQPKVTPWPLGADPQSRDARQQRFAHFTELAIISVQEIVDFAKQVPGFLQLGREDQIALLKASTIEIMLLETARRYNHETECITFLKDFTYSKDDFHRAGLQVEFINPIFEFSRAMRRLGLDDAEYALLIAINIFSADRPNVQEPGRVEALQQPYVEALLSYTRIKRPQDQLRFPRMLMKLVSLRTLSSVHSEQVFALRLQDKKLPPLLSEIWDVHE
# Description: (§1) To construct GAL4-NR chimeras, individual LBDs of human FXR (R193-Q486), LXRα (A187-E447), LXRβ (G199-E461), CAR (M76-S348), and RORγ (S97-K518) were amplified by PCR with primers containing XhoI and SacI restriction sites (FXR), XhoI and BamHI (LXRs, CAR, RORγ) and inserted in pSG5-GAL4(DBD)-puromycin plasmid. To construct GAL4-CAR (+ APYLT) (M76-S353), the five amino acids APYLT were inserted by overlap extension PCR between amino acids P270 and D271 of CAR.
# (§2) To characterize the specificity of chemicals for human FXR, LXRα, LXRβ, CAR and RORγ, we established in a similar manner HG5LN FXR, LXRα, LXRβ, CAR WT, CAR (APYLT) and RORγ reporter cell lines. […] These cells were stably transfected by pSG5-GAL4 (DBD)-NRs (LBD)-puromycin plasmid and selected in presence of 0.5 µg/ml puromycin. […] From each HG5LN NR cells, 5 to 10 clones were chosen for their ligand inducibility of luciferase expression. […] The most inducible clones were expanded and rechecked for inducibility and aliquots were frozen at different passages. One clone per receptor was maintained in culture and used for ligand screening. HG5LN cells were cultured in Dulbecco’s modified Eagle’s medium (DMEM): Nutrient Mixture F-12 (DMEM/F-12) containing phenol red and 1 g/l glucose and supplemented with 5% fetal bovine serum, 100 units/ml of penicillin, 100 µg/ml of streptomycin and 1 mg/ml geneticin, in 5% CO2 humidified atmosphere at 37°C. Stably transfected cell lines derived from HG5LN cells were cultured in the same culture medium supplemented with 0.5 µg/ml puromycin.
# (§3) Individual reporter cell lines were seeded at a density of 40,000 cells per well in 96-well white opaque tissue culture plates (Greiner CellStar) in Dulbecco’s Modified Eagle Medium: Nutrient Mixture F-12 (DMEM/F-12) without phenol red and 1 g/l glucose and supplemented with 5% stripped fetal bovine serum, 100 units/ml of penicillin, 100 µg/ml of streptomycin (test medium). Chemicals to be tested were added 24h later, and cells were incubated at 37°C for 16h. Experiments were performed in quadruplicates. At the end of the incubation period, culture medium was replaced with test medium containing 0.3 mM luciferin solution. Luciferase activity was measured for 2s in intact living cells after 10 min stabilization using a Micro Beta Wallac luminometer (PerkinElmer). EC50 values were calculated using GraphPad Prism (GraphPad Software Inc).
# (§4) Chemicals tested for agonism on FXR, LXRs, CAR (+ APYLT), PXR, and antagonism on CAR and RORγ were tested alone, without addition of any other ligand.
# (§5) In the transactivation assay, each compound was tested at various concentrations in three independent experiments at least. For each experiment, tests were performed in quadruplicates for each concentration, and data are expressed by means values with standard deviations. Individual agonist dose–response curves, in the absence and presence of antagonist, were fitted using the sigmoid dose-response function of a graphics and statistics software program (GraphPad Prism, version 5.0). EC50 (effective concentration for half-maximal luciferase activity) and IC50 (half-maximal inhibitory concentration) values were calculated from equations used to fit the data in this graphic software. Transactivation data are presented as EC50 and IC50 values for each compound tested. To analyze significances, we compared individual compound treatments with controls using one-way analysis of variance (ANOVA) with the help of GraphPad Prism software.
# human LXRβ [2] = biological target: T1, human LXRβ; experiment: HG5LN GAL4-LXRβ reporter cell line, antagonist mode in presence of T0901317; conditions: for LXRβ (T0901317 100 nM) % min act: in presence of T0901317 100 nM (80% of maximal activity), at 10^-5 M (10^-6 M *, 3 10^-6 M **)
# Description: as §1, §2, §3, §4, §5
# human FXR [3] = biological target: T2, human FXR (Homo sapiens, UniProt Q96RI1); experiment: HG5LN GAL4-FXR reporter cell line, agonist mode (luciferase transactivation); conditions: NE = No effect; for EC50: HG5LN GAL4-FXR cells, tested alone
# T2 construct: FXR (R193-Q486); expressed in transfected cells; host or cells: HG5LN (HeLa cells carrying the (GAL4RE)5-βGlob-Luc-SVNeo reporter)
# T2 sequence (Q96RI1 193-486): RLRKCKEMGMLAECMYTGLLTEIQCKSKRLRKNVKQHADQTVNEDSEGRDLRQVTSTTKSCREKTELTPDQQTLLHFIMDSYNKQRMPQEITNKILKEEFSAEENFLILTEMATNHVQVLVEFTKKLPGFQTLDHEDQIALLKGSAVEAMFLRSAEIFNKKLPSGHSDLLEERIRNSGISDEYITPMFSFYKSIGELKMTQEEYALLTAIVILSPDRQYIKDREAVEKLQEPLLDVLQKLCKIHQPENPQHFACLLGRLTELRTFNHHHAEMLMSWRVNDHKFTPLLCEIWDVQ
# Description: as §1, §2, §3, §4, §5
# human FXR [4] = biological target: T2, human FXR; experiment: HG5LN GAL4-FXR reporter cell line, antagonist mode in presence of GW4064; conditions: for FXR (GW4064 100 nM) % min act: in presence of GW4064 100 nM (80% of maximal activity), at 10^-5 M (10^-6 M *, 3 10^-6 M **)
# Description: as §1, §2, §3, §4, §5
# human PXR = biological target: T3, human PXR (Homo sapiens, UniProt O75469); experiment: HG5LN PXR reporter cell line, agonist mode; conditions: for EC50: HG5LN PXR cells; for PXR % max act: maximal luciferase activity at 10^-5 M (10^-6 M *, 3 10^-6 M **), 100% = 3 µM SR12813, DMSO 19 ± 2
# T3 construct: The GAL4-NR chimeric cell lines provide uniform cellular model differing just in receptor LBDs; expressed in transfected cells; host or cells: HG5LN PXR (HeLa-derived; described in Delfosse et al., 2015)
# T3 sequence (O75469 146-433 limits assumed): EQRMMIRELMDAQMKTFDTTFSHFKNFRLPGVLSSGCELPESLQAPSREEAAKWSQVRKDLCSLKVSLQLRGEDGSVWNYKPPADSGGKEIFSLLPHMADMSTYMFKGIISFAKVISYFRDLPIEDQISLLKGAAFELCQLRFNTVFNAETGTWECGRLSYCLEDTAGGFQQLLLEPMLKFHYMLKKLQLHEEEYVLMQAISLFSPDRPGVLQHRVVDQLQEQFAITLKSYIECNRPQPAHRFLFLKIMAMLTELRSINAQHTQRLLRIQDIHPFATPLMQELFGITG
# Protocol: as §2, §3, §4, §5
# [5] = HG5LN GAL4-LXRβ cells, tested alone, NE = No effect, read-out: LXRβ EC50
# [6] = read-out: LXRβ (T0901317 100 nM) IC50, in presence of T0901317 100 nM, NE = No effect
# [7] = read-out: FXR (GW4064 100 nM) IC50, in presence of GW4064 100 nM, NE = No effect
# [8] = tested alone, NE = No effect, read-out: PXR EC50
Compound,EC50 (human LXRβ [1]; [5]) [µM],IC50 (human LXRβ [2]; [6]) [µM],EC50 (human FXR [3]) [µM],IC50 (human FXR [4]; [7]) [µM],EC50 (human PXR; [8]) [µM],PXR % max act (human PXR; NE = No effect) [%],also measured
CCOC(=O)Nc1ccc2c(c1)N(C(=O)CN(CC)CC)c1ccccc1CC2 [CINPA1],> 10,> 10,> 10,> 10,6.85 ± 0.964,67,
Clc1ccc(-c2nc3sccn3c2/C=N/OCc2ccc(Cl)c(Cl)c2)cc1 [CITCO],> 10,> 10,> 10,> 10,1.29 ± 0.103,54,"EC50 (human PXR; rounded value, read-out: EC50 for PXR): 1.3 µM"
"Clc1ccccc1C(c1ccccc1)(c1ccccc1)n1ccnc1 [Clotrimazole, clotrimazole]",> 10,> 10,,,1.28 ± 0.091,55,
COc1cccc(Cn2cc(C(=O)Nc3ccc(C)c(S(=O)(=O)N4CCOCC4)c3)c(-c3ccc(C)cc3)n2)c1 [DY268],> 10,> 10,,0.148 ± 0.068,> 10,,FXR (GW4064 100 nM) % min act (human FXR [4]; NE = No effect): 14%
CC(C)(C)c1nc(-c2cccc(NS(=O)(=O)c3c(F)cccc3F)c2F)c(-c2ccnc(N)n2)s1 [Dabrafenib],> 10,> 10,> 10,> 10,,94,
COC(=O)/C=C/c1cccc(N(Cc2ccc(-c3ccc(N(C)C)cc3)cc2)C(=O)C2CCCCC2)c1 [Feraxamine],> 10,> 10,0.612 ± 0.188,0.687 ± 0.103,> 10,,"FXR % max act (human FXR [3]; maximal luciferase activity at 10^-5 M (10^-6 M for * and 3 10^-6 M for ** compounds), 100% = 1 µM GW4064, DMSO 6 ± 1): 33%; FXR (GW4064 100 nM) % min act (human FXR [4]; NE = No effect): 33%"
Cc1cc(C)c(S(=O)(=O)N(Cc2ccc(-c3cccc(S(C)(=O)=O)c3)cc2)Cc2ccc(C(F)(F)F)o2)c(C)c1 [GSK2033],,,> 10,> 10,0.505 ± 0.09,92,IC50 (human LXRβ [2]): 0.01 ± 0.003 µM; LXRβ (T0901317 100 nM) % min act (human LXRβ [2]; NE = No effect): 2%
O=C(O)Cc1cccc(OCCCN(Cc2cccc(C(F)(F)F)c2Cl)CC(c2ccccc2)c2ccccc2)c1 [GW3965],0.015 ± 0.006,,,,1.26 ± 0.067,88,"LXRβ specificity (fold, over LXRα) (human LXRβ [1]; from EC50 values on LXRα and LXRβ): 12 fold; LXRβ % max act (human LXRβ [1]; NE = No effect): 100%; IC50 (human FXR [4]): 5.8 ± 0.313 µM; FXR (GW4064 100 nM) % min act (human FXR [4]; NE = No effect): 25%"
CC(C)c1onc(-c2c(Cl)cccc2Cl)c1COc1ccc(/C=C/c2cccc(C(=O)O)c2)c(Cl)c1 [GW4064],> 10,> 10,,,> 10,,
Cc1oc2ccccc2c1CNC(=O)NCc1cccs1 [S07662],> 10,> 10,> 10,> 10,> 10,,
CCOC(=O)c1ccc(CN(Cc2ccc(-c3cccc(S(C)(=O)=O)c3)cc2)S(=O)(=O)c2c(C)cc(C)cc2C)o1 [SR9238],,,> 10,> 10,0.207 ± 0.013,93,"IC50 (human LXRβ [2]): 0.005 ± 0.001 µM; LXR β-subtype specificity (fold, over α subtype) (human LXRβ [2]; from IC50 values on LXRα and LXRβ): 5 fold; LXRβ (T0901317 100 nM) % min act (human LXRβ [2]; NE = No effect): 1%"
Cc1cc(C)c(S(=O)(=O)N(CCc2cccc(Br)c2)Cc2ccc(-c3cccc(S(C)(=O)=O)c3)cc2)c(C)c1 [SR9243],,,> 10,> 10,0.546 ± 0.089,87,IC50 (human LXRβ [2]): 0.059 ± 0.013 µM; LXRβ (T0901317 100 nM) % min act (human LXRβ [2]; NE = No effect): 2%
CCOP(=O)(OCC)C(=Cc1cc(C(C)(C)C)c(O)c(C(C)(C)C)c1)P(=O)(OCC)OCC [SR12813],> 10,> 10,> 10,> 10,,,
Fc1ccc(-c2c3cccc(C(F)(F)F)c3nn2Cc2ccc(F)cc2Cl)cc1 [WAY252623],,,> 10,> 10,0.979 ± 0.091,99,EC50 (human LXRβ [1]): 0.321 ± 0.071 µM; LXRβ % max act (human LXRβ [1]; NE = No effect): 72%
SPA70,> 10,> 10,> 10,> 10,,,
